Literature values as cited in US20230372315A1, “Liquid-State Pharmaceutical Composition Exhibiting Excellent Preservative Effectiveness” (ISHIHARA SANGYO KAISHA, LTD., priority 2020, published 2023).

Columns and labels:
[1] = water having pH5 or less
[2] = beyond pH8

With `CCS(=O)(=O)Nc1ncc(C(F)(F)F)cc1NC(=O)C1CCCCC1` [N-(2-ethylsulfonylamino-5-trifluoromethyl-3-pyridyl)cyclohexanecarboxamide] as the molecule, how does the solubility in water [1] read?
Its solubility in water is “virtually not dissolved”.

With `OCc1ccccc1` [Benzyl alcohol] as the molecule, how does the antibacterial activity [2] read?
Its antibacterial activity is “virtually no antibacterial activity”.
